Source: ChEMBL document CHEMBL1201862, “PubChem BioAssay data set” (2004)
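A five-concentration, 48-hour dose response in 96-well plates underlies each endpoint, interpolated linearly between surrounding concentrations. Abbreviation: GI50, concentration required for 50% inhibition of growth.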 Active and inactive are the calls of the source. Cut-off read from the data, not from the text of the source: active = GI50 up to about 1.1 µM and inactive = higher.

Tests used:
Assay in all cases: inhibition of tumour cell growth, NCI panel, 48 h
UACC-62 = tested on: UACC-62
NCI-H460 = tested on: NCI-H460
NCI-H23 = tested on: NCI-H23
TK-10 = tested on: TK-10
MCF7 = tested on: MCF7
BT-549 = tested on: BT-549
HL-60 = tested on: HL-60
RXF 393 = tested on: RXF 393
SK-MEL-2 = tested on: SK-MEL-2
OVCAR-4 = tested on: OVCAR-4
U-251 = tested on: U-251
PC-3 = tested on: PC-3
RPMI-8226 = tested on: RPMI-8226
NCI-H226 = tested on: NCI-H226
CCRF-CEM = tested on: CCRF-CEM
HT-29 = tested on: HT-29
SK-MEL-5 = tested on: SK-MEL-5
HOP-62 = tested on: HOP-62
OVCAR-8 = tested on: OVCAR-8
SNB-19 = tested on: SNB-19
SF-539 = tested on: SF-539
A498 = tested on: A498
HOP-92 = tested on: HOP-92
A549 = tested on: A549
NCI-H522 = tested on: NCI-H522
OVCAR-5 = tested on: OVCAR-5
MOLT-4 = tested on: MOLT-4
SNB-75 = tested on: SNB-75
COLO 205 = tested on: COLO 205
UACC-257 = tested on: UACC-257
UO-31 = tested on: UO-31
T47D = tested on: T47D
M14 = tested on: M14
MDA-MB-435 = tested on: MDA-MB-435
HCT-15 = tested on: HCT-15
EKVX = tested on: EKVX
Malme-3M = tested on: Malme-3M
LOX IMVI = tested on: LOX IMVI
SF-268 = tested on: SF-268
MDA-MB-231 = tested on: MDA-MB-231
ACHN = tested on: ACHN
SK-MEL-28 = tested on: SK-MEL-28
CAKI-1 = tested on: CAKI-1
MDA-N = tested on: MDA-N
DU-145 = tested on: DU-145
786-0 = tested on: 786-0
IGROV-1 = tested on: IGROV-1
OVCAR-3 = tested on: OVCAR-3
Hs-578T = tested on: Hs-578T
SW-620 = tested on: SW-620
SK-OV-3 = tested on: SK-OV-3
KM12 = tested on: KM12
SR = tested on: SR
HCT-116 = tested on: HCT-116
K562 = tested on: K562
SF-295 = tested on: SF-295
NCI/ADR-RES = tested on: NCI/ADR-RES
SN12C = tested on: SN12C
HCC 2998 = tested on: HCC 2998

Measured: GI50

CC1(C)[C@@H]2C[C@H]1c1cnc(-c3ccccn3)cc1[C@H]2C(O)[C@@H]1c2cc(-c3ccccn3)ncc2[C@H]2C[C@@H]1C2(C)C (some centres undefined)
71.8 nM: HCT-15
inactive: TK-10 2.14 µM | Hs-578T 6.93 µM
active: UACC-62 247 nM | NCI-H460 47.2 nM | NCI-H23 189 nM | MCF7 79.6 nM | BT-549 184 nM | HL-60 21.2 nM | RXF 393 198 nM | SK-MEL-2 428 nM | OVCAR-4 61.8 nM | U-251 74.1 nM | PC-3 332 nM | RPMI-8226 89.3 nM | NCI-H226 < 50.4 nM | CCRF-CEM < 22.2 nM | HT-29 112 nM | SK-MEL-5 46.1 nM | HOP-62 73 nM | OVCAR-8 124 nM | SNB-19 301 nM | SF-539 214 nM | A498 491 nM | HOP-92 322 nM | A549 154 nM | NCI-H522 142 nM | OVCAR-5 1.11 µM | MOLT-4 28.5 nM | SNB-75 773 nM | COLO 205 161 nM | UACC-257 396 nM | UO-31 78.5 nM | T47D 505 nM | M14 82 nM | MDA-MB-435 1 µM | EKVX 165 nM | Malme-3M 218 nM | LOX IMVI 27.2 nM | SF-268 126 nM | MDA-MB-231 338 nM | ACHN 113 nM | SK-MEL-28 470 nM | CAKI-1 106 nM | MDA-N 627 nM | DU-145 125 nM | 786-0 45.1 nM | IGROV-1 43 nM | OVCAR-3 28.1 nM | SW-620 170 nM | SK-OV-3 86.7 nM | KM12 769 nM | SR 30.9 nM | HCT-116 37.4 nM | K562 124 nM | SF-295 72.1 nM | NCI/ADR-RES 101 nM | SN12C 54.7 nM | HCC 2998 993 nM
